For the first data set, the system named is human hepatocyte cell line (HepG2). Description: HepG2 cell inhibition assay (CCK-8 cell viability). Type of data set: cell-based. The following applies: 50% growth inhibition vs untreated control, 24 hours. As to the method: HepG2 Cell Inhibition Assay
Cell counting kit-8 (Sigma, CCK-8) assays were performed to assess the effect of compounds on cell viability. The assay is based on the reduction of a water-soluble tetrazolium salt (WST-8) by cellular dehydrogenases to a formazan dye which can be detected spectroscopically. 96-well plates were seeded with the human hepatocyte cell line (HepG2) at approximately 8×10^3 cells per well in Minimum Essential Medium Eagle (EMEM) with Earle's salts and sodium bicarbonate supplemented with 10% heat-inactivated foetal bovine serum 2 mM glutamine and 1% non-essential amino acids (NEAA). The following day serial dilutions of compounds (dissolved and diluted in DMSO) were added to the cells in duplicates. Control included an ‘untreated’ control where cells were grown in the presence of 1% DMSO and a medium only control (plus 1% DMSO). After 24 hours CCK-8 reagent (10 μl) was added to each well and cell viability was assessed by measuring the absorbance at a wavelength of 450 nm after 2-3 h hours. Only living cells can reduce the tetrazolium salts into coloured formazan products. Results were expressed as 50% growth inhibition (TD50) values compared to ‘untreated’ control. The therapeutic index was calculated as the ratio of the dose that produces growth inhibition in 50% of HepG2 cells divided by the dose where 50% of S. aureus growth is inhibited.
As for `COC(=O)[C@H](C[Se][Au]=[P](C(C)C)(C(C)C)C(C)C)NC(C)=O` [Compound 23], the “HepG2 cell TD50” value turned out to be 12 µg/mL.

As to `C[P](C)(=[Au][S]c1nc2ncccc2o1)c1ccccc1` [Compound 14], the “HepG2 cell TD50” value came out at 9 µg/mL.

Turning to `C[P](C)(=[Au][S]c1nc2ccccc2[nH]1)c1ccccc1` [Compound 13], the “HepG2 cell TD50” value was found to be 8.5 µg/mL.

As to `CC(C)[P](=[Au][S]c1nc2ccccc2[nH]1)(C(C)C)C(C)C` [Compound 20], the “HepG2 cell TD50” value came out at 6 µg/mL.

In the case of `COC(=O)[C@H](C[Se][Au]=[P](C)(c1ccccc1)c1ccccc1)NC(C)=O` [Compound 22], the “HepG2 cell TD50” value came to 10 µg/mL.

Take `COC(=O)[C@H](C[S][Au]=[P](C)(C)c1ccccc1)NC(C)=O` [Compound 15]: the “HepG2 cell TD50” value was 6 µg/mL.

Regarding `CC[P](CC)(CC)=[Au][S]C[C@H](NC(C)=O)C(N)=O` [Compound 16], the “HepG2 cell TD50” value was 9 µg/mL.

The next data set deals with chinese hamster ovary cells (CHO). Kind of data set: CHO toxicity assay (CCK-8 cell viability). The class given is cell-based. The following applies: 50% growth inhibition vs untreated control, 24 hours. As to the method: Cell counting kit-8 (Sigma, CCK-8) assays were performed to assess the effect of compounds on cell viability. The assay is based on the reduction of a water-soluble tetrazolium salt (WST-8) by cellular dehydrogenases to a formazan dye which can be detected spectroscopically. 96-well plates were seeded with chinese hamster ovary cells (CHO) cells at 7×10^3 cells per well in Dulbecco's modified Eagle's medium nutrient mixture F-12 Ham (containing 15 mM HEPES, NaHCO3, pyridoxine and L-glutamine) supplemented with 10% fetal bovine serum (FBS). The following day serial dilutions of compounds (dissolved and diluted in DMSO) were added to the cells in duplicates. Control included an ‘untreated’ control where cells were grown in the presence of 1% DMSO and a medium only control (plus 1% DMSO). After 24 hours CCK-8 reagent (10 μl) was added to each well and cell viability was assessed by measuring the absorbance at a wavelength of 450 nm after 2.5-3 hours. Only living cells can reduce the tetrazolium salts into coloured formazan products. Results were expressed as 50% growth inhibition (TD50) values compared to ‘untreated’ control.
The therapeutic index was calculated as the ratio of the dose that produces growth inhibition in 50% of CHO cells divided by the dose where 50% of S. aureus growth is inhibited.
Turning to `CC[P](CC)(CC)=[Au][S]C[C@H](NC(C)=O)C(=O)OC` [Compound 7], the “CHO cell TD 50” value worked out at 2.6 µg/mL.

In the case of `CC[P](CC)(CC)=[Au][S]c1nc2ccccc2[nH]1` [Compound 5], the “CHO cell TD 50” value came to 1.5 µg/mL.

`C[P](=[Au][S]c1nc2ncccc2o1)(c1ccccc1)c1ccccc1` [Compound 11]: the “CHO cell TD 50” value turned out to be 2.0 µg/mL.

With `CC[P](CC)(CC)=[Au][Se]C[C@H](NC(C)=O)C(=O)OC` [Compound 12], the “CHO cell TD 50” value turned out to be 6.5 µg/mL.

In the case of `CC[P](CC)(CC)=[Au][S][C@H]1CC[C@H](O)CC1` [Compound 6], the “CHO cell TD 50” value came out at 1.5 µg/mL.

Take `CC[P](CC)(CC)=[Au][S]c1cccnn1` [Compound 4]: the “CHO cell TD 50” value is 1.4 µg/mL.

On to `CC[P](CC)(CC)=[Au][S]C1CCN(C(=O)OC(C)(C)C)CC1` [Compound 2], for which the “CHO cell TD 50” value stood at 0.7 µg/mL.

As for `CC[P](CC)(CC)=[Au][S]c1nc2ncccc2o1` [Compound 8], the “CHO cell TD 50” value is 1.6 µg/mL.

Consider `CC[P](CC)(CC)=[Au][S]c1ncccn1` [Compound 3], for which the “CHO cell TD 50” value is 0.6 µg/mL.

As to `CC[P](CC)(CC)=[Au][S]C1CCOCC1` [Compound 1], the “CHO cell TD 50” value stood at 0.5 µg/mL.

As for `C[P](=[Au][S]c1nc2ccccc2[nH]1)(c1ccccc1)c1ccccc1` [Compound 9], the “CHO cell TD 50” value came out at 2.6 µg/mL.

As for `COC(=O)[C@H](C[S][Au]=[P](C)(c1ccccc1)c1ccccc1)NC(C)=O` [Compound 10], the “CHO cell TD 50” value is 1.2 µg/mL.
